“Also recorded” adds a separate entry of the source. Like-named read-outs stand apart in the source and are kept apart here.
Legend:
cat-CHD1L = target: T1, cat-CHD1L (Homo sapiens, UniProt Q86WJ1); assay: CHD1L ATPase assay measured by ADP-Glo; format: biochemical
T1 construct: made in house; host or cells: Rosetta 2 (DE3) pLysS cells (E. coli)
T1 sequence (Q86WJ1 16-619): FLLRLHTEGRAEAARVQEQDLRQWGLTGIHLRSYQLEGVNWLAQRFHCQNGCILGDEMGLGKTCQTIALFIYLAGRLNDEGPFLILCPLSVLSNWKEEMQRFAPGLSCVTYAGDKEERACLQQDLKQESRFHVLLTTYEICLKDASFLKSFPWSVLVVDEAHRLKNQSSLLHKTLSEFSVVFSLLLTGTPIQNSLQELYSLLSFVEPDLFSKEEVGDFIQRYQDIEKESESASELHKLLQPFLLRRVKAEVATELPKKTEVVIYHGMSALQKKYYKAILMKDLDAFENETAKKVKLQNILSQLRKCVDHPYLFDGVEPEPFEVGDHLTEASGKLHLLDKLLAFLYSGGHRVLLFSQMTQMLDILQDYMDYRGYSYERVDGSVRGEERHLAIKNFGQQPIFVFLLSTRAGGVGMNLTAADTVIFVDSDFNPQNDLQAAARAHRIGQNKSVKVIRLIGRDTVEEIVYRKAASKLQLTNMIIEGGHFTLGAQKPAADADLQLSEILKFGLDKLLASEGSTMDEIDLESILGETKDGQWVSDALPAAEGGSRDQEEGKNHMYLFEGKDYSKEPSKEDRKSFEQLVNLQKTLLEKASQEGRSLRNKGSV
Protocol: No enzyme control was used to measure the background. […] The reaction was incubated at 37° C. for 1 h. The assay plate was brought to RT before 5 μL of ADP-glo™ Reagent (Promega, Cat. No. V9102) was added to remove unreacted ATP. The ATP depletion step was carried out at RT for 40 min before 10 μL of Kinase Detection Reagent was added and incubated for 30-60 min to convert the ADP produced from the enzyme assay back to ATP for luciferase rection to convert to light for detection. An EnVision plate reader (PerkinElmer) was used to detect luminescence from the ADP-glo assay and the enzyme activity was determined after background subtraction and normalization to enzyme only control.

SUM149PT tumor organoids = assay: Tumor organoid cytotoxicity (CellTiter Glo 3D), SUM149PT; format: cell-based; conditions: for IC50: Homo sapiens; for increase in potency of the chemotherapy: SUM149PT BRCA1 mutant tumor organoids, + 1.9 μM Compound 6; for improvement of IC50 potency: combined with Compound 6; for mean synergy score (Bliss): SUM149PT cells
Protocol: Tumor organoid culture—Cell lines were cultured as tumor organoids by seeding 2,000 to 5,000 cells/well into uncoated 96 well U-bottom Ultra Low Attachment Microplates (Corning) using their corresponding medium.
Luminescence was recorded using the EnVision plate reader (PerkinElmer) and values normalized to the controls using GraphPad Prism.

CHD1L = target: T2, CHD1L (Homo sapiens, UniProt Q86WJ1); assay: CHD1L trapping (in situ subcellular fractionation, immunofluorescence); format: cell-based; conditions: single agent, SUM149PT + 0.01% MMS 4 h, BC and CRC cells
T2 sequence (Q86WJ1 1-897): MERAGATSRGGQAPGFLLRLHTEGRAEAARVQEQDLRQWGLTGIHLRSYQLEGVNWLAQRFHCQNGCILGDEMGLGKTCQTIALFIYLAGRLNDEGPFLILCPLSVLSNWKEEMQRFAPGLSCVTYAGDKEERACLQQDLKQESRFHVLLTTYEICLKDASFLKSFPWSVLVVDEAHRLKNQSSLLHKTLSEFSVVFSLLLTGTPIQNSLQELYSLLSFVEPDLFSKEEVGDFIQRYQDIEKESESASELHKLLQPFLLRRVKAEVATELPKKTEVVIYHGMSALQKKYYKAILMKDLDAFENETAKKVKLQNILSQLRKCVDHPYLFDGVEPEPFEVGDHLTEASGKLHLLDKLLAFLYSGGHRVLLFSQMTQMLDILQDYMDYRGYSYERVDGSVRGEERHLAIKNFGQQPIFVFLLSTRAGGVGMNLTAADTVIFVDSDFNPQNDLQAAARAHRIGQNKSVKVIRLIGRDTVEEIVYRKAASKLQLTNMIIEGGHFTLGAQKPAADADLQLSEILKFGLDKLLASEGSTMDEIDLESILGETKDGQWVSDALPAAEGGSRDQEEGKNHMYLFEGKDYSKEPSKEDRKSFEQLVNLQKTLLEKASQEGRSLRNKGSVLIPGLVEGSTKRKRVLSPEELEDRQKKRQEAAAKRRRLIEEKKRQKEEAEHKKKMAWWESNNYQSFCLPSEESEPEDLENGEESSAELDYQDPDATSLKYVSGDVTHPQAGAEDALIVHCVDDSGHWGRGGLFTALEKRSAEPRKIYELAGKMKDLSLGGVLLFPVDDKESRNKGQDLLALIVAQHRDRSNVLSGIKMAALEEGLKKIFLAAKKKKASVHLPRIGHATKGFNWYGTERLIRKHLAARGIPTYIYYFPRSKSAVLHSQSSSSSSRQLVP
Source text: Other studies on the role of CHD1L used cell lines with knockdown or knockouts of the gene encoding for CHD1L and have never been able to study the result of its enzymatic inhibition.

PARP2 = PARP2 (Homo sapiens, UniProt Q9UGN5); assay: PARP2 enzymatic (colorimetric) assay; format: biochemical
Sequence of PARP2 (Q9UGN5 whole entry): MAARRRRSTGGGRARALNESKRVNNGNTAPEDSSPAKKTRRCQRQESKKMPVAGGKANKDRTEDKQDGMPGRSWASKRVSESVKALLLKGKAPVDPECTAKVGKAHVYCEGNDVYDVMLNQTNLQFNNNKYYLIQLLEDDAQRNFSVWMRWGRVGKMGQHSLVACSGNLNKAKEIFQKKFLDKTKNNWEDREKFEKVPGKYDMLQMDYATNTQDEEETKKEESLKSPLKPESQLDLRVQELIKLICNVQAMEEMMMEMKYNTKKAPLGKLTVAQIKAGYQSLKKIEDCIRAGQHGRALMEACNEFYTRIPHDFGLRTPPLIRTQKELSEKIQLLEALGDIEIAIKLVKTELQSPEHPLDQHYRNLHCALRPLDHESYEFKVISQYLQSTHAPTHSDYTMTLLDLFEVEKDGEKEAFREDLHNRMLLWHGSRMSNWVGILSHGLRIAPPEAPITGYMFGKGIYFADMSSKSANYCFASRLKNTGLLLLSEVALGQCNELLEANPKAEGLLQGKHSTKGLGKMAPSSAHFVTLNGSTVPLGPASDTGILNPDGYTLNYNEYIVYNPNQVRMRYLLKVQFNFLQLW
Protocol: . First, a 96 well plate was coated with histones. Next, the biotinylated NAD^+ substrate was incubated with an activated DNA template, the inhibitor to test and the PARP1/2 enzyme for 1 h at RT. After that, the sample plate was treated with streptavidin-RP for 30 min at RT, followed by addition of the horseradish peroxidase (HRP) substrate until the colorimetric signal was developed. The EnVision plate reader (PerkinElmer) was used to measure the absorbance at 450 nm and the results were plotted and analyzed using GraphPad Prism.

SW620 tumor organoids = assay: cells; conditions: Homo sapiens
Colo678 cells = assay: Colo678 cell viability, combination with chemotherapy; format: cell-based; conditions: for IC50: Homo sapiens, COLO-678, Colo678 cells, read-out: IC50 5-FU
HCC1937 tumor organoids = assay: Tumor organoid cytotoxicity, HCC1937; format: cell-based; conditions: Homo sapiens; HCC1937 (BRCA1 mutant HR-deficient); read-out: IC50, tumor organoid viability, single agent
Protocol: Tumor organoid culture—Cell lines were cultured as tumor organoids by seeding 2,000 to 5,000 cells/well into uncoated 96 well U-bottom Ultra Low Attachment Microplates (Corning) using their corresponding medium. Cell aggregation was then promoted by centrifugation of the plates for 15 min at 1,000 rpm followed by the addition of Matrigel (Corning) to a 2-5% final concentration. Tumor organoids were maintained under standard cell culture conditions for 72 h prior to drug treatment.
Organoids were then transferred to a white solid bottom 96 well plate and incubated with an equal volume of CellTiter Glo 3D reagent (Promega) for 45 min on a shaker at 400 rpm. Luminescence was recorded using the EnVision plate reader (PerkinElmer) and values normalized to the controls using GraphPad Prism.

COc1cccc2c1C(=O)c1c(O)c3c(c(O)c1C2=O)C[C@@](O)(C(=O)CO)C[C@@H]3O[C@H]1C[C@H](N)[C@H](O)[C@H](C)O1 [doxorubicin]
inhibition of CHD1L ATPase activity (cat-CHD1L): do not trap CHD1L or inhibit CHD1L ATPase activity
IC50 (SUM149PT tumor organoids; SUM149PT, Compound 13 0 μM, read-out: IC50 doxorubicin (μM) in SUM149PT): 0.505 µM
IC50 (SUM149PT tumor organoids; SUM149PT, Compound 13 2 μM, read-out: IC50 doxorubicin (μM) in SUM149PT): 0.0944 µM
IC50 (SUM149PT tumor organoids; SUM149PT, Compound 13 2.25 μM, read-out: IC50 doxorubicin (μM) in SUM149PT): 0.016 µM
IC50 (SUM149PT tumor organoids; SUM149PT, Compound 13 2.5 μM, read-out: IC50 doxorubicin (μM) in SUM149PT): 0.279 µM
IC50 (SUM149PT tumor organoids; SUM149PT tumor organoids, 72 h, + non-lethal doses of Compound 6, read-out: IC50 of the drug in combination): 0.28 ± 0.01 µM
increase in potency of the chemotherapy (SUM149PT tumor organoids): 20 fold
improvement of IC50 potency (SUM149PT tumor organoids; SUM149PT tumor organoids): 2 fold
CHD1L trapping onto chromatin/nucleosomes (CHD1L): do not trap CHD1L
CHD1L trapping onto chromatin/nucleosomes (CHD1L; listed as Doxorubicin): does not cause a stable interaction of CHD1L and chromatin

O=C(c1cc(Cc2n[nH]c(=O)c3ccccc23)ccc1F)N1CCN(C(=O)C2CC2)CC1 [olaparib]
inhibition of CHD1L ATPase activity (cat-CHD1L): do not trap CHD1L or inhibit CHD1L ATPase activity
PARP2 enzyme activity (PARP2): inhibits both PARP1 and PARP2
IC50 (SUM149PT tumor organoids; SUM149PT, 72 h, read-out: IC50 of the drug alone, SUM149PT tumor organoids, 72 h): 170 ± 27 µM
IC50 (SUM149PT tumor organoids; SUM149PT, 72 h, read-out: IC50 of the drug in combination, SUM149PT tumor organoids, 72 h, + non-lethal doses of Compound 6): 19 ± 0.56 µM
IC50 (SUM149PT tumor organoids; SUM149PT, read-out: IC50 Olaparib (μM) in SUM149PT, Compound 13 0 μM): 400 µM
IC50 (SUM149PT tumor organoids; SUM149PT, read-out: IC50 Olaparib (μM) in SUM149PT, Compound 13 2 μM): 41.8 µM
IC50 (SUM149PT tumor organoids; SUM149PT, read-out: IC50 Olaparib (μM) in SUM149PT, Compound 13 2.25 μM): 13.4 µM
IC50 (SUM149PT tumor organoids; SUM149PT, read-out: IC50 Olaparib (μM) in SUM149PT, Compound 13 2.5 μM): 19 µM
increase in potency of the chemotherapy (SUM149PT tumor organoids): 10 fold
improvement of IC50 potency (SUM149PT tumor organoids; SUM149PT tumor organoids): 9 fold
CHD1L trapping onto chromatin/nucleosomes (CHD1L): do not trap CHD1L; also recorded: did not show CHD1L trapping
IC50 (SW620 tumor organoids; SW-620, read-out: IC50 olaparib, SW620 tumor organoids, combined with Compound 6.11): 0.8 µM
IC50 (SW620 tumor organoids; SW-620, read-out: IC50 olaparib, SW620 tumor organoids, olaparib alone): 282 µM

O=c1[nH]cc(F)c(=O)[nH]1 [Compound 5-FU, 5-fluorouracil]
IC50 5-FU (μM) in SUM149PT (SUM149PT tumor organoids; Compound 13 0 μM): Resistant
IC50 (SUM149PT tumor organoids; SUM149PT, Compound 13 2 μM, read-out: IC50 5-FU (μM) in SUM149PT): 23.8 µM
IC50 (SUM149PT tumor organoids; SUM149PT, Compound 13 2.25 μM, read-out: IC50 5-FU (μM) in SUM149PT): 23 µM
IC50 (SUM149PT tumor organoids; SUM149PT, Compound 13 2.5 μM, read-out: IC50 5-FU (μM) in SUM149PT): 14.4 µM
increase in potency of the chemotherapy (SUM149PT tumor organoids): 10 fold
improvement of IC50 potency (SUM149PT tumor organoids; SUM149PT tumor organoids): 10 fold
IC50 (Colo678 cells; Compound 6.11 0 μM): 3430 µM
IC50 (Colo678 cells; Compound 6.11 3 μM): 717 µM
IC50 (Colo678 cells; Compound 6.11 3.25 μM): 99.4 µM
IC50 (Colo678 cells; Compound 6.11 3.5 μM): 58.5 µM
IC50 (Colo678 cells; Compound 12 0 μM): 75100 µM
IC50 (Colo678 cells; Compound 12 1 μM): 549 µM
IC50 (Colo678 cells; Compound 12 1.5 μM): 392 µM
IC50 (Colo678 cells; Compound 12 2 μM): 205 µM
IC50 (Colo678 cells; Compound 13 0 μM): 7520 µM
IC50 (Colo678 cells; Compound 13 3.5 μM): 544 µM
IC50 (Colo678 cells; Compound 13 3.75 μM): 432 µM
IC50 (Colo678 cells; Compound 13 4 μM): 246 µM
IC50 (Colo678 cells; Compound 14 2.5 μM): 149 µM
IC50 (Colo678 cells; Compound 14 2.75 μM): 74.7 µM
IC50 (Colo678 cells; Compound 14 3 μM): 50.4 µM
IC50 (Colo678 cells; Compound 20 0 μM): 14800 µM
IC50 (Colo678 cells; Compound 20 3.5 μM): 170 µM
IC50 (Colo678 cells; Compound 20 4 μM): 60 µM
IC50 (Colo678 cells; Compound 20 4.5 μM): 34.5 µM
IC50 (SW620 tumor organoids; SW-620, 72 h, read-out: IC50 5FU, SW620 tumor organoids, 72 h, 5FU alone): > 200 µM
IC50 (SW620 tumor organoids; SW-620, 72 h, read-out: IC50 5FU, SW620 tumor organoids, 72 h, + Compound 6.11 2.75 μM): 2.88 µM

Cc1cc(Nc2ccc(NC(=O)Cc3cc(Br)cs3)cc2)nc(N2CCCC2)n1 [Compound 6.11, 2-(4-bromothiophen-2-yl)-N-(4-((6-methyl-2-(pyrrolidin-1-yl)pyrimidin-4-yl)amino)phenyl)acetamide]
IC50 (SUM149PT tumor organoids; SUM149PT, read-out: IC50, tumor organoid viability, single agent, SUM149PT (BRCA1 mutant HR-deficient)): ~1.7 µM
mean synergy score (Bliss) (SUM149PT tumor organoids; combined with 5-FU): about 60
mean synergy score (Bliss) (SUM149PT tumor organoids; combined with Olaparib): about 58
mean synergy score (Bliss) (SUM149PT tumor organoids; combined with docetaxel): about 56
IC50 (HCC1937 tumor organoids): ~2.8 µM
calculated mean synergy score (Colo678 cells; Colo678 cells, 72 h, combined with SN-38): about 41

Reference: patent US20260240844A1, “INHIBITORS OF CHD1L AND USES THEREOF” (The Regents of the University of Colorado, a body corporate, priority 2023, published 2026)
